The subject of this data set is HVT. Put plainly: Growth and plaque formation of HVT in CEF in the presence of AraT. Format: cell-based, herpesvirus of turkeys (HVT). The source says: In HSV-infected cells, ¹²⁵IdC is incorporated into DNA only after it has been phosphorylated by the viral TK as described by Summers and Summers, J. Virol. 24: 314-318 (1977), specifically incorporated herein by reference. Moreover, growth of HVT in CEF is inhibited by the drug AraT, whereas uninfected CEF appears to be unaffected. AraT (1-beta-D-arabinofuranosyl-thymine obtained from Calbiochem) is lethal to cells only once it is incorporated into the DNA where it acts as a chain-terminator. Again by analogy to HSV, AraT-resistance is likely to be due to mutations in the thymidine kinase gene.
AraT-resistant variants occur spontaneously in populations of FC126, and are isolated by growing cell-free virus as described by Calnek et al., Avian Dis. 16:52-56 (1972), specifically incorporated herein by reference, in CEF in the presence of 100 ug/ml AraT. Specifically, 150 mm tissue culture dishes are seeded with 2 X 10⁷ cells of secondary CEF. Two hours later the medium is removed, and 2 X 10⁴ pfu of cell-free HVT are adsorbed for 30 minutes. After adsorption, 30 ml of medium containing 100 ug/ml of AraT is added. Cells are fluid-changed every two days, always with AraT, and monolayers are screened for plaques 4-5 days post-infection at 40-fold magnfication using an inverted microscope. One AraT-resistant variant ATR° was found in 2 X 10⁵ pfu screened initially. Subsequent experiments have yielded AraT resistant HVT at least that frequency. ATR° remains stable for at least nine passages in the absence of AraT.
In addition, wild-type HVT has a growth advantage over the AraT-resistant variants. These differences between the wild-type HVT and HVT that are AraT-resistant, form the basis for a marker-rescue assay that allows for the identification of the region of DNA, and thus the gene which confers resistance to AraT. DNA from the AraT resistant HVT (10 ug of total infected-cell DNA) is co-transfected with individual DNA clones (200 ng of plasmid DNA or 1 ug of phage DNA) representing the genome of HVT. […]

Molecules are shown by their SMILES.

On to `Cc1cn([C@@H]2O[C@H](CO)[C@@H](O)[C@@H]2O)c(=O)[nH]c1=O` [AraT, 1-beta-D-arabinofuranosyl-thymine], for which the “effect on uninfected CEF” value (AraT, uninfected CEF) was “unaffected”. Further, where the note is “in the presence of AraT”, the “growth of HVT in CEF” value was “inhibited” and the “plaque-forming ability of wild-type HVT” value was “completely inhibits”.

The values are drawn from patent EP0351418B1, “VIRAL VECTOR SYSTEM FOR THE INTRODUCTION OF FOREIGN DNA […] INTO GA[…]” (SYNERGEN, INC., priority 1987, dated 1988).
